Test system: Arabidopsis PR1 promoter
Experiment: GUS florescence assay of promoter::GUS plants after SA application, Arabidopsis PR1 promoter
Type: in vivo
Conditions: 5 mM SA spray
From the text: A binary promoter::reporter plasmid (pNOV2374) for Arabidopsis transformation was constructed. The regulatory/promoter sequence was fused to the GUS reporter gene (Jefferson et al. (1987) EMBO J 6: 3901-3907) by recombination using […] Technology according to the manufacturer's protocol as described in the Instruction Manual (LifeTechnologies, Rockville, Md.). The construct was then transformed into Agrobacterium tumefaciens strains by electroporation. pNOV2374 is a binary vector with a VS1 origin of replication, a copy of the Agrobacterium virg gene in the backbone, and a Basta® resistance selectable marker cassette between the left and right border sequences of the T-DNA. The Basta® selectable marker cassette comprises the Agrobacterium tumefaciens manopine synthase promoter (AtMas) (Barker et al., Plant Mol. Biol. 2, 335-350 (1983)) operably linked to the gene encoding Basta® resistance (i.e., the “BAR” gene, phosphinothricin acetyl transferase) (White et al., Nucl Acids Res 18: 1062 (1990)) and the 35S terminator. The AtMas promoter, the BAR coding sequence, and the 35S terminator are located at nt 4211 to nt 4679, nt 4680 to nt 5228, and nt 5263 to nt 5488, respectively, of pNOV2374. The vector contains […] recombination components, which were introduced into the binary vector backbone by ligating a blunt-ended cassette containing attR sites, ccdB, and a cholramphenicol resistance marker using the […] Vector Conversion System (LifeTechnologies, Rockville, Md.). The […] cassette was located between nt 126 and 1818 of pNOV2374. The promoter cassettes were inserted through an LR recombination reaction whereby the DNA sequence of pNOV2374 between nt 126 and nt 1818 were removed and replaced with the promoter of interest flanked by att sequences. […] The GIG gene (SEQ ID NO:29) contains the ST-LS1 intron from Solanum tuberosum at nt 385 to nt 576 of GUS (obtained from Dr. Stanton […], Purdue University, and described in Narasimhulu, et al. (1996) Plant Cell 8: 873-886.). The orientation of the selectable marker and promoter-reporter cassettes in the binary vector construct was as follows: For the purpose of comparing promoter activity, additional constructs were produced with the known Arabidopsis PR1 (SEQ ID NO:30) and SMAS (SEQ ID NO:31) promoters (see Plant J. 16 (2) 223-233 (1998) and Plant Mol. Biol. 20 (2) 219-233 (1992), respectively) operatively linked to the GIG gene (SEQ ID NO:29) and the […]. […] The treatment was applied as a fine mist to the leaves. […] For quantitative analysis of promoter activity following induction treatments or in various Arabidopsis tissues and organs, GUS expression is measured florometrically. Tissue samples were harvested and ground in ice cold GUS extraction buffer (50 mM Na2HPO4 pH 7.0, 5 mM DTT, 1 mM Na2EDTA, 0.1% TritonX100, 0.1% sarcosyl). Ground samples were spun in a microfuge at 10,000 rpm for 15 minutes at 4° C. Following centrifugation, the supernatant was removed for the GUS assay and for a protein concentration determination. To measure GUS activity, the plant extract was assayed in GUS assay buffer (50 mM Na2HPO4 pH 7.0, 5 mM DTT, 1 mM Na2EDTA, 0.1% TritonX100, 0.1% sarcosyl, 1 mM 4-Methylumbelliferyl-beta-D-glucuronic acid dihydrate (MUG)), pre-warmed to 37° C. Reactions were incubated, and 100 uL aliquots were removed at 10 minute intervals over 30 minutes to stop the reaction by adding the 100 uL aliquots to tubes containing 900 uL of 2% Na2CO3. The stopped reactions were then read on a Tecan Spectroflourometer at 365 nm excitation and 455 emission wavelengths. Protein concentrations were determined using the BCA assay following the manufacturer's protocol. GUS activity is expressed as pmol MU/mg protein/min.

O=C(O)c1ccccc1O [SA, salicylic acid]
GUS Activity Induced by SA (2 h): 57.7 pmol/mg protein/min | GUS activity Fold-change relative to T0 (uninduced) (2 h): 3.4 fold | GUS Activity Induced by SA (4 h): 254.7 pmol/mg protein/min | GUS activity Fold-change relative to T0 (uninduced) (4 h): 15.2 fold | GUS Activity Induced by SA (8 h): 206.5 pmol/mg protein/min | GUS Activity Induced by SA (24 h): 393.1 pmol/mg protein/min | GUS activity Fold-change relative to T0 (uninduced) (24 h): 23.4 fold

From patent US7199286B2, “Plant-derived novel pathogen and SAR-induction chemical induced promoters, and fragments thereof” (Syngenta Participations AG, priority 1999, dated 2007)
